The values that follow come from US11149047B2, “Aryl imidazoles for treatment of cancer” (Aptose Biosciences Inc., priority 2017, dated 2021).

The structures appear in SMILES notation.

The subject of series [1] is MCF10A BRCA1-het #1 and #2 clones vs control. As to the kind of experiment: Sensitivity of BRCA1-proficient and -deficient isogenic clones. In kind it is cell-based, human. To be noted: FIG. 3A. As to the method: (§1) Cells were plated and treated with the indicated drugs in 96-well plates for 5 days. Cell viability was measured using CellTiter 96 AQueous one solution (MTS) cell proliferation assay purchased from Promega, and IC50 values were calculated using GraphPad Prism 6 Software.
(§2) The finding that COMPOUND I produced DNA damage led to the investigation of whether cells deficient in homologous recombination were hypersensitive to this drug. The hypothesis that there would be synthetic lethality between COMPOUND I and BRCA1 deficiency using isogenic pairs of BRCA1-proficient and -deficient human cell lines was tested. […] The conclusion that BRCA1-deficient cells are hypersensitive to COMPOUND I was further supported by the results obtained in MCF7 E7 cells in which BRCA1 expression is stably knocked down by the expression of an shRNAi. […] Whether BRCA2-deficient cells are more sensitive to COMPOUND I was tested using the BRCA2-proficient and BRCA2-deficient ovarian cancer cell lines, PEO4 and PEO1, respectively. PEO1 is BRCA2-deficient and sensitive to cisplatin and a poly(ADP-ribose) polymerase inhibitor AG14361. PEO4 was derived from ascites at the time of relapse with cisplatin resistance and contains a secondary mutation that restores BRCA2 function. […] Thus, loss of either BRCA1 or BRCA2 function renders malignant cells hypersensitive to COMPOUND I.

Series [2] deals with hTERT-IMEC BRCA1 knock-in clone. The description is as above. In kind it is cell-based, human. To be noted: FIG. 3B. As to the method: as §1, §2
The test system of another series is MYC in AML cell lines. The experiment in a line: MYC mRNA (qRT-PCR) and protein (Western blot) levels. In kind it is cell-based. To be noted: all AML cell lines tested, 24 hours. As to the method: Cells were treated with vehicle or COMPOUND I at various concentrations for 24 hours or at a single concentration for 1, 3, 6, 12, and 24 hours before harvesting. Cells were lysed by QiaShredder columns (QIAGEN, catalog #79656), total RNA was isolated using QIAGEN RNeasy Plus Mini Kit (catalog #74134), and cDNA was synthesized utilizing Transcriptor Universal cDNA master mix (Roche, catalog #05893151001) and then used for qRT-PCR analysis using FastStart essential DNA probes master mix (Roche, catalog #06402682001) and Roche LightCycler96. Primer probe pairs were purchased from IDT (Table 5). Expression was calculated as fold change over vehicle treated samples after normalizing to GAPDH […].
Cells were treated as described above. Whole-cell lysates were prepared, separated by SDS-PAGE, and transferred to nitrocellulose membranes. Densitometry was performed using ImageJ or Image Studio Lite Version5.2 software and normalized to the density of GAPDH.
MYC expression is implicated in the pathogenesis of a wide range of cancers, including leukemia and lymphoma. […] It was also observed that an increased transcription of genes negatively regulated by MYC in COMPOUND I-treated MV4-11 cells. […] The time course of MYC protein repression in MV4-11 cells paralleled inhibition of MYC gene expression levels detected by RNA-seq. […]
In general terms: Real-time PCR tracks product formation cycle by cycle.

The next series deals with Raji/COMPOUND IR cells. The experiment in a line: Cellular pharmacology: intracellular accumulation and efflux by LC-MS/MS. It is filed as in vitro ADME, human. As to the method: Cells exposed to COMPOUND I or Fe(COMPOUND I)3 were homogenized in acetonitrile containing 5 ng of a deuterated COMPOUND I standard. Samples were analyzed at the UCSD Molecular Mass Spectrometry Facility employing an Agilent 1260 liquid chromatograph (LC) system coupled with a Thermo LCQdeca mass spectrometer using positive ion mode electrospray ionization (ESI) as the ion source. The ESI ion source voltage was set at 5 kV, with sheath gas flow rate of 80 units, auxiliary gas flow rate of 20 units, and capillary temperature of 250° C., respectively. A Phenomenex Kinetex Biphenyl column (ID 2.1 mm×length 50 mm, particle size 2.6 μm) was utilized for LC separation using water with 0.1% formic acid as the mobile phase A and acetonitrile with 0.1% formic acid as the mobile phase B. The LC flow rate was set at 0.30 mL/min. The LC gradient increased from 5% mobile phase B to 95% mobile phase B in 10 minutes, held at 95% B for 2 minutes, returned to 5% B in 1 minute, and then held at 5% B for 6 minutes. […] Selected reaction monitoring (SRM) mode was used to acquire the m/z 353 and m/z 359 fragmental peaks. The SRM peak area ratio (COMPOUND I/COMPOUND I-d6) related to the amount of spiked COMPOUND I-d6 was used for the quantification of COMPOUND I and Fe(COMPOUND I)3 in the samples. The same column, gradient and flow rate were used for detection of Fe(COMPOUND I)3 which was detected using an Agilent 1100 HPLC and Orbitrap XL (Thermo) mass spectrometer employing a Thermo IonMax ESI interface. The Fe(COMPOUND I)3 eluted around 11.5 minutes with these conditions. A 10:1 flow split was used for the eluent flow rate of 0.3 mL/min, so that approximately 0.030 mL/min was introduced into the ESI after the split. […]
Resistance in the Raji/COMPOUND IR cells may be due to alterations in influx or efflux, intracellular detoxification or a change in the primary target of the drug. The intracellular accumulation of both native COMPOUND I and the Fe(COMPOUND I)3 in Raji and Raji/COMPOUND IR cells incubated with either native COMPOUND I or the Fe(COMPOUND I)3 complex was monitored.

For the molecule `Cc1[nH]c2ccc(F)cc2c1-c1nc2c3cccnc3c3ncccc3c2[nH]1` [COMPOUND I, 2-(5-fluoro-2-methyl-1H-indol-3-yl)-1H-imidazo[4,5-f][1,10]phenanthroline], the “sensitivity of BRCA1-het knockin clones vs control” value in series [1] was “even more hypersensitive”. In addition, the “sensitivity of BRCA1 2-bp knock-in clone” value in series [2] was “hypersensitive to both olaparib and COMPOUND I”. The “MYC mRNA and protein levels” value in the series on MYC in AML cell lines is “concentration-dependent decrease in both MYC mRNA and protein levels”. In addition, the “rate of accumulation in Raji/COMPOUND IR vs Raji cells” value in the series on Raji/COMPOUND IR cells (0.5 μM, FIG. 6A, 6B) is listed as “severely reduced”. Also, the “Rate of efflux over first 2 hours” value with Raji/COMPOUND IR cells (Raji/COMPOUND IR cells, mean ± SEM, n = 6) was −0.26 ± 0.025 log fmole/10^7 cells/h. Also, the “difference in efflux over first 2 h between Raji and Raji/COMPOUND IR” value in the series on Raji/COMPOUND IR cells (after loading of the cells) is “no apparent difference in the efflux”.
